Square brackets hold non-standard residues; d marks the D form. Peptide text beside a SMILES is read from it. d1Nal = N[C@H](Cc1cccc2ccccc12)C(=O)O; dNle = CCCC[C@@H](N)C(=O)O
What was measured:
[1] = Peptide self-assembly nanostructure in solution by SAXS; format: physicochemical; conditions: for nanostructure in solution (self-assembly, SAXS model): lab SAXS, 50 mM Tris buffer pH 7.4, 2.5–10 mg/mL, ambient temperature; as to cross section of the nanotubes: values in Å
Experimental: SAXS experiments of D2D and the alanine-scan (compounds 1–8) were performed using a Bruker NANOSTAR equipped with a microfocus X-ray source (IμS Cu, InCoatec, Germany) and a VÅNTEC-2000 detector. Raw scattering data was calibrated to absolute intensity scale using water as a primary standard and radially averaged in order to obtain the 1D scattered intensity profile as a function of the scattering vector q (q = 4 π sin (θ/2)/λ), where θ is the scattering angle and λ is the X-ray wavelength of 1.54 Å. The samples were dissolved in 50 mM Tris buffer, pH 7.4 (10 mg/mL, 5 mg/mL and 2.5 mg/mL) and injected manually into a temperature-controlled quartz cell located in a vacuum chamber and measured for 180 min.
The scattering of the peptide D2D was analysed using a random polymer-like chain model:(1) Ichain(q)=ϕ·Vp·Δρ^2·Pchain(q) where ϕ is the volume fraction of the peptide, Vp is the volume of the polymer, Δρ is the excess scattering length density and Pchain(q) is the form factor of the free peptide chains given by the Debye expression for Gaussian chains:(2) gPchain(q)=2·exp[−(qRg)^2]−1+(qRg)^2/(qRg)^4 where Rg is the radius gyration of the peptide chains.
The scattering for compounds 2 and 7 was analysed using a rectangular sheet like model:(3) Isheet(q)=ϕ·Vp·Δρ^2·Np·Psheet(q)
Under the assumption that the length of the peptide sheets are much greater than the lateral dimension, i.e., c >> a, b, the form factor Psheet(q) is given by (4) Psheet(q)=Fc(q)1/2π∫02πAsheet(q, α)^2dα where the amplitude is given by (5) Asheet(q,α)=sin(qb cos(α)/2)/qb cos(α)/2· sin(qa sin(α)/2) /qa sin(α)/2) and (6) Fc(q)=(2 Si(qc)/(qc)−4 sin^2(qc/2)/(qc)^2 where Si(x)=∫0xt^−1sint dt .
The expression for the absolute scattering intensity, from this structure can be written as:(7) Inanotube(q)=ϕ·P·Vtot·Δρ^2·P(q)L·A(q)cs2·DW(q) where ϕ is the volume fraction of the peptide, P is the aggregation number given by P π(Ro2−Ri2)L/Vp where Vp is the volume of a peptide chain, Ro is the outer radius and Ri is the inner radius of the tubes, and L is the length. A(q)cs2 is given by:(8) A(q)cs2=Ro2A(q,Rc)−Rin2A(q,Ri)/(Ro2−Ri2) where A(q,x)=2J1(q·x)/(q·x) and J1(x) is the first order Bessel function.
The longitudinal form factor P(q)L is given by:(9) P(q)L=2 Si(QL)/QL −4 sin(sin^2(QL/2)/(QL)^2 where L is the length of the nanotubes and Si(x) is the Sine-function.
In addition, we introduced a slight distribution in the inner radius for possible shape fluctuations, and a Debye Waller factor, DW(q) = exp(−q^2 σ^2), describing possible surface roughness of the inner and outer wall.

human red blood cells = experiment: Hemolytic activity; format: cell-based; conditions: red cells of human, 1 h, 150
Experimental: The percentage of hemolysis at 150 μM was determined for all compounds as previously described. Briefly, two-fold serial dilutions (2.35 to 150 μM) of compounds in PBS were mixed with a 0.5% v/v suspension of fresh human red blood cells (RBC) in the same buffer. After 1 h incubation at 37 °C, plates were centrifuged and aliquots of the supernatants were transferred to clear ELISA plates. Absorbance at 414 nm was determined and normalised with respect to a negative (PBS, 0%) and positive (melittin, 100%) control.

SMILES	nanostructure in solution (self-assembly, SAXS model) [1]	%H (% Hemolysis at 150 µM) (human red blood cells)	cross section of the nanotubes ([1]; SAXS nanotube model fit, 50 mM Tris pH 7.4)
CCCC[C@@H](NC(=O)[C@@H](CCCCN)NC(=O)[C@@H](Cc1cccc2ccccc12)NC(=O)[C@@H](CCCCN)NC(=O)[C@@H](Cc1ccccc1)NC(=O)[C@@H](Cc1cccc2ccccc12)NC(=O)[C@@H](CCCCN)NC(=O)[C@@H](C)N)C(N)=O [Compound 1, ak(1-nal)fk(1-nal)k(nle)-NH2] (H-[dA][dK][d1Nal][dF][dK][d1Nal][dK][dNle]-NH2)	random polymer-like chains	41%	–
CCCC[C@@H](NC(=O)[C@@H](CCCCN)NC(=O)[C@@H](Cc1cccc2ccccc12)NC(=O)[C@@H](CCCCN)NC(=O)[C@@H](Cc1ccccc1)NC(=O)[C@@H](Cc1cccc2ccccc12)NC(=O)[C@@H](C)NC(=O)[C@H](N)CCCCN)C(N)=O [Compound 2, ka(1-nal)fk(1-nal)k(nle)-NH2] (H-[dK][dA][d1Nal][dF][dK][d1Nal][dK][dNle]-NH2)	larger filament like structures	59%	14 Å
CCCC[C@@H](NC(=O)[C@@H](CCCCN)NC(=O)[C@@H](Cc1cccc2ccccc12)NC(=O)[C@@H](CCCCN)NC(=O)[C@@H](Cc1ccccc1)NC(=O)[C@@H](C)NC(=O)[C@@H](CCCCN)NC(=O)[C@H](N)CCCCN)C(N)=O [Compound 3, kkafk(1-nal)k(nle)-NH2] (HELM PEPTIDE1{[dK].[dK].[dA].[dF].[dK].[O=C([C@@H](Cc1cccc2ccccc12)N[*:1])[*:2]].[dK].[CCCC[C@@H](N[*:1])C(=O)[*:2]].[am]}$$$$V2.0)	random polymer-like chains	2%	–
CCCC[C@@H](NC(=O)[C@@H](CCCCN)NC(=O)[C@@H](Cc1cccc2ccccc12)NC(=O)[C@@H](CCCCN)NC(=O)[C@@H](C)NC(=O)[C@@H](Cc1cccc2ccccc12)NC(=O)[C@@H](CCCCN)NC(=O)[C@H](N)CCCCN)C(N)=O [Compound 4, kk(1-nal)ak(1-nal)k(nle)-NH2] (H-[dK][dK][d1Nal][dA][dK][d1Nal][dK][dNle]-NH2; N-terminus assumed)	random polymer-like chains	22%	–
CCCC[C@@H](NC(=O)[C@@H](CCCCN)NC(=O)[C@@H](C)NC(=O)[C@@H](CCCCN)NC(=O)[C@@H](Cc1ccccc1)NC(=O)[C@@H](Cc1cccc2ccccc12)NC(=O)[C@@H](CCCCN)NC(=O)[C@H](N)CCCCN)C(N)=O [Compound 6, kk(1-nal)fkak(nle)-NH2] (HELM PEPTIDE1{[dK].[dK].[O=C([C@@H](Cc1cccc2ccccc12)N[*:1])[*:2]].[dF].[dK].[dA].[dK].[CCCC[C@@H](N[*:1])C(=O)[*:2]].[am]}$$$$V2.0; N-terminus assumed)	random polymer-like chains	10%	–
CCCC[C@@H](NC(=O)[C@@H](C)NC(=O)[C@@H](Cc1cccc2ccccc12)NC(=O)[C@@H](CCCCN)NC(=O)[C@@H](Cc1ccccc1)NC(=O)[C@@H](Cc1cccc2ccccc12)NC(=O)[C@@H](CCCCN)NC(=O)[C@H](N)CCCCN)C(N)=O [Compound 7, kk(1-nal)fk(1-nal)a(nle)-NH2] (H-[dK][dK][d1Nal][dF][dK][d1Nal][dA][dNle]-NH2)	larger filament like structures	67%	–
C[C@@H](NC(=O)[C@@H](CCCCN)NC(=O)[C@@H](Cc1cccc2ccccc12)NC(=O)[C@@H](CCCCN)NC(=O)[C@@H](Cc1ccccc1)NC(=O)[C@@H](Cc1cccc2ccccc12)NC(=O)[C@@H](CCCCN)NC(=O)[C@H](N)CCCCN)C(N)=O [Compound 8, kk(1-nal)fk(1-nal)ka-NH2] (HELM PEPTIDE1{[dK].[dK].[O=C([C@@H](Cc1cccc2ccccc12)N[*:1])[*:2]].[dF].[dK].[O=C([C@@H](Cc1cccc2ccccc12)N[*:1])[*:2]].[dK].[dA].[am]}$$$$V2.0; N-terminus assumed)	random polymer-like chains	5%	–
NCCCC[C@@H](N)C(=O)N[C@H](CCCCN)C(=O)N[C@H](Cc1cccc2ccccc12)C(=O)N[C@H](Cc1ccccc1)C(=O)N[C@H](CCCCN)C(N)=O [Compound 32, kk(1-nal)fk-NH2] (HELM PEPTIDE1{[dK].[dK].[O=C([C@@H](Cc1cccc2ccccc12)N[*:1])[*:2]].[dF].[dK].[am]}$$$$V2.0; N-terminus assumed)	–	5%	–
CCCC[C@@H](NC(=O)[C@@H](CCCCN)NC(=O)[C@@H](Cc1cccc2ccccc12)NC(=O)[C@@H](CCCCN)NC(=O)[C@@H](Cc1ccccc1)NC(=O)[C@@H](Cc1cccc2ccccc12)NC(=O)[C@@H](CCCCN)NC(=O)[C@H](N)CCCNC(=N)N)C(N)=O [Compound 33, rk(1-nal)fk(1-nal)k(nle)-NH2] (H-[dR][dK][d1Nal][dF][dK][d1Nal][dK][dNle]-NH2)	–	60%	–
CCCC[C@@H](NC(=O)[C@@H](CCCCN)NC(=O)[C@@H](Cc1cccc2ccccc12)NC(=O)[C@@H](CCCCN)NC(=O)[C@@H](Cc1ccccc1)NC(=O)[C@@H](Cc1cccc2ccccc12)NC(=O)[C@@H](CCCNC(=N)N)NC(=O)[C@H](N)CCCCN)C(N)=O [Compound 34, kr(1-nal)fk(1-nal)k(nle)-NH2] (H-[dK][dR][d1Nal][dF][dK][d1Nal][dK][dNle]-NH2; N-terminus assumed)	–	35%	–
CCCC[C@@H](NC(=O)[C@@H](CCCCN)NC(=O)[C@@H](Cc1cccc2ccccc12)NC(=O)[C@@H](CCCNC(=N)N)NC(=O)[C@@H](Cc1ccccc1)NC(=O)[C@@H](Cc1cccc2ccccc12)NC(=O)[C@@H](CCCCN)NC(=O)[C@H](N)CCCCN)C(N)=O [Compound 35, kk(1-nal)fr(1-nal)k(nle)-NH2] (H-[dK][dK][d1Nal][dF][dR][d1Nal][dK][dNle]-NH2; N-terminus assumed)	–	49%	–
CCCC[C@@H](NC(=O)[C@@H](CCCNC(=N)N)NC(=O)[C@@H](Cc1cccc2ccccc12)NC(=O)[C@@H](CCCCN)NC(=O)[C@@H](Cc1ccccc1)NC(=O)[C@@H](Cc1cccc2ccccc12)NC(=O)[C@@H](CCCCN)NC(=O)[C@H](N)CCCCN)C(N)=O [Compound 36, kk(1-nal)fk(1-nal)r(nle)-NH2] (H-[dK][dK][d1Nal][dF][dK][d1Nal][dR][dNle]-NH2; N-terminus assumed)	–	51%	–
